In patent US20140212437A1, “METHODS AND COMPOSITIONS FOR TREATING ATRIAL FIBRILLATION” (THE REGENTS OF THE UNIVERSITY OF MICHIGAN, priority 2013, published 2014):
Entries after “also recorded” stand apart in the source; their conditions may differ.

Tests used:
FOXO1 = experiment: Western blot of FOXO1 phosphorylation; type: cell-based, rat
Procedure: (§1) Cell Treatment: Isolated adult rat cardiac myocytes were treated with FCM or TGF-β1 (R and D systems, Minneapolis, Minn.) for 3 days in serum free medium. For PI3K pathway inhibition cells were pretreated (30 min) with 10 μM […] (Cayman Chemicals, Ann Arbor) before the treatment with TGF-β1.
Western blotting: Control and treated cardiac myocytes were washed in cold PBS, lysed directly in the modified loading buffer (25 mmol/l Tris.HCl; 150 mmol/l NaCl; 1 mmol/l EDTA; 4 mmol/l NaF; 2 mmol/l Sodium ortho-vanadate; 1% Triton X-100, protease inhibitor, 5% glycerol, 1% SDS, 0.05% bromophenol blue. 5% β mercaptoethanol) and sonicated. The lysate (20 μl) were then subjected SDS-PAGE as described earlier. The blots were incubated with rabbit pFOXO1 antibody, 1:500 (Cell Signaling) or rabbit GAPDH antibody, 1:5000 (Sigma-Aldrich, St. Louis, Mo.).

SCN5A = experiment: mRNA analysis by qPCR, SCN5A; type: cell-based, rat
Procedure: as §1
(§2) mRNA analysis by quantitative PCR (qPCR): Cardiac myocytes were washed with PBS and lysed with lysis buffer. RNA was isolated from the myocardial tissue using RNAeasy kit from Qiagen (Qiagen, Valencia, Calif.) according to the manufacturer's instructions. Isolated RNA from these samples was treated with DNase for 15 min at room temperature (Qiagen, Valencia. CA). 100 ng of DNA-free total poly-A tail RNA (mRNA) was first subjected to synthesis of cDNA using Oligo dT primers applying SuperScript III First-Strand Synthesis System from Invitrogen (Invitrogen, Carlsbad, Calif.) according to the manufacturer's instructions. cDNA from 20 ng of total RNA was then subjected to real-time RT-PCR using predesigned taqman probe primers specific for rat Scn5a (Rn00565502), Kcnip2 (Kchip2; Rn01411451) and kcnd2 (Rn01456260) (Applied Biosystems, California). No-template controls and no-RT controls were run during each experiment to detect any RNA and/or DNA contamination. Results are expressed as fold expression of gene of interest normalized to GAPDH expression in the sample.

KCND2 = experiment: mRNA analysis by qPCR, KCND2; type: cell-based, rat; details: 1 ng/ml, 72 hr
Procedure: as §2

KCNIP2 = experiment: mRNA analysis by qPCR, KCNIP2; type: cell-based, rat; details: 1 ng/ml, 72 hr
Procedure: as §2

[1] = tested on: adult rat ventricular myocytes; experiment: Whole-cell patch clamp, sodium current (INa); type: cell-based
Procedure: as §1
Patch-clamp experiments: Whole-cell ionic currents were recorded from adult rat ventricular myocytes. All recordings were conducted at room temperature. Sodium current recordings were conducted in a low-sodium extracellular solution containing (in mM): NaCl, 10; MgCl2, 1; CaCl2, 1.8; CdCl2, 0.1; HEPES, 20; CsCl, 127.5; glucose, 11. The pipette solution contained (in mM): NaCl, 5; CsF, 135; EGTA, 10; MgATP, 5; HEPES, 5. To characterize the voltage dependence of the peak INa, single cells were held at −120 mV, and 200 msec voltage steps were applied from −90 to +30 mV in 5 mV increments. The interval between voltage steps was 3 sec. Voltage-dependence of inactivation was assessed by holding cells at various potentials from −160 to −40 mV followed by a 30 msec test pulse to −40 mV to elicit INa. Recovery from inactivation was studied by holding cells at −120 mV and applying two 20-msec test pulses (S1, S2) to −40 mV separated by increments of 2 msec to a maximum S1-S2 interval of 80 msec. The S1-S1 interval was kept constant at 3 sec.
(§3) In all experiments, cells were exposed to one of the following for 72 hrs prior to the experiment: control medium, FCM or TGF-β1.

[2] = tested on: adult rat ventricular myocytes; experiment: Action potential recording, current clamp; type: cell-based
Procedure: as §1
Action potentials were recorded from individual myocytes using the current clamp mode of the MultiClamp 700B amplifier after gigaseal formation and patch break. Stimulus pulses (1-2 ms duration) were generated using a World Precision Instruments DS8000 stimulator (Sarasota, Fla.). The bath solution contained (in mM): NaCl: 148, KCl: 5.4, MgCl2: 1, CaCl2 1.8, NaH2PO4: 0.4, HEPES: 15, Glucose: 5.5, pH 7.4 with NaOH. The pipette solution contained (in mM), KCl: 20, K-aspartate: 90, KH2PO4: 10, EDTA: 5.0. K2ATP: 1.9, HEPES: 5.0 and Mg2+ 7.9; pH 7.2 (KOH)

[3] = tested on: adult rat ventricular myocytes; experiment: Whole-cell patch clamp, transient outward potassium current (Ito); type: cell-based; details: 72-hr
Procedure: as §1
The extracellular solution for transient outward potassium current (Ito) contained (in mM): 136 NaCl, 4 KCl, 1.8 CaCl2, 2 MgCl2, 10 HEPES, 0.03 tetrodotoxin. 0.01 nifedipine, and 14 glucose, pH 7.35. The pipette solution contained (in mM): 135 KCl, 1 MgCl2, 10 EGTA, 10 HEPES, 5 glucose, pH 7.2. Voltage-gated outward K+ currents were evoked during 5-s depolarizing voltage steps to potentials between −40 and +60 mV from a holding potential of −70 mV; voltage steps were presented in 10 mV increments at 15 s intervals
as §3

[4] = tested on: adult sheep atrial fibroblasts; experiment: Cell proliferation, WST reagent; type: cell-based; details: 1-30 μg/ml, 24 hours, SFM
Procedure: (§4) Wound healing experiments were performed to investigate if exogenous Gal-3 can increase myofibroblast migration in vitro (FIG. 3). Adult sheep atrial fibroblasts were cultured in 96-well plates until confluent. Before serum starvation, cells were stained with cell tracker dye and DAPI. A wound was created by scraping a semi-confluent monolayer of cells with a 1 ml pipette tip. Thereafter, cells underwent serum starvation in DMEM with […] for 6 hrs. Comparisons were made between untreated and Gal-3 treated (1 μg/ml or 10 μg ml) cells. The wound was imaged at 4 different locations at 3 different time points (days 0, 1 and 2). The size of the wound was quantified using the NIS element program by Nikon. […] Next, to investigate the effects of Gal-3 on myofibroblast proliferation, adult sheep atrial fibroblasts were treated with recombinant human Gal-3 (EMD chemicals, USA) for 24 hours in the presence of SFM. FM was included as a positive control. Cell proliferation was measured using cell proliferation reagent WST (Roche Diagnostics, USA). […] Such concentrations are in the same range used previously (Sharma et al., Circulation. 2004; 110:3121-3128) to investigate Gal-3 induced fibroblast proliferation in the cardiomyopathic heart. […] In addition, the results strongly support the therapeutic value of Gal-3 inhibitors.

[5] = tested on: adult sheep atrial fibroblasts; experiment: Wound healing (in vitro migration) assay; type: cell-based; details: Gal-3 vs untreated cells, days 0-2
Procedure: as §4

## O=c1cc(N2CCOCC2)oc2c(-c3ccccc3)cccc12 [LY 29004, reference compound]
FOXO1; pretreated 30 min with 10 μM
  phosphorylation of FOXO1 in TGF-β1 treated cells: inhibited
SCN5A; pretreated 30 min with 10 μM
  TGF-β1-induced increase in SCN5A transcription: failed to show increased SCN5A transcription

## TGF-β1
KCND2
  decrease of KCND2 expression with respect to control: 50.6%
KCNIP2
  reduction of mRNA levels of KCNIP2: 77%
FOXO1; 1 ng/ml
  increase in phosphorylated FOXO1 compared to control: 67%
FOXO1; 1 ng/ml, phosphorylation seen at 5 min
  exposure time of peak FOXO1 phosphorylation: 15 min
[1]; 1 ng/ml, 72 hours, also seen at 10 ng/ml
  maximum INa increase: about 40%
[1]; 1 ng/ml, at −40V
  more inward current compared to control medium: about 40%
[1]; 1 ng/ml, step voltages between −60 mV and −30 mV, p<0.05-0.01
  peak INa density compared to control: significantly increased the peak INa density
[1]; 72 hours, 0.001-1.0 ng/ml
  EC50 for peak inward INa density: 0.007 ng/mL
[1]; 72 hr treatment or viral overexpression
  voltage dependence of activation (m∞) and inactivation (h∞): neither the m∞ nor the h∞ curve was modified
[2]; 10 ng/ml, 72 hours
  action potential duration (APD): basic cycle length (BCL) dependent action potential duration (APD) prolongation
[2]; 10 ng/ml, BCL of 1000 ms
  APD30 relative to control: > 3.5 times
[2]; 10 ng/ml, BCL of 1000 ms, control 8.1±3.6
  APD30: 29.1 ± 5.6 ms
[2]; 50 ng/ml
  action potential duration / early afterdepolarizations: APD was so prolonged that some cells early afterdepolarizations (EADs)
SCN5A; 1 ng/ml, 72 hr
  SCN5A transcript levels, increase: 1.73±0.26 fold
[3]; 1 ng/ml
  peak Ito: significantly reduced the peak Ito but to a much modest level
[3]; 10 ng/ml, at 60 mV
  Ito current density, % of control levels: 57%
[3]; 10 ng/ml, at +20 mV
  reduction of Ito current density: 42%
[3]; 10 ng/ml, control 22.2±1.2
  Ito current density at 60 mV: 12.6±0.98
[3]; 10 ng/ml, voltages between +20 mV and +60 mV
  Ito compared to control: significantly lower than control

## Gal-3: recombinant human Gal-3 (EMD chemicals, USA) added exogenously to sheep atrial fibroblasts
[4]
  number of adult sheep atrial myofibroblasts (proliferation): increased the number of adult sheep atrial myofibroblasts in a concentration-dependent manner; also recorded: increases proliferation
[5]
  rate of migration / wound healing: significantly increased the rate of migration and promoted wound healing; also recorded: increases the rate of wound healing
